Experimental data from ChEMBL document CHEMBL6074682, “Expanding the therapeutic window of gramicidin S towards a safe and effective systemic treatment of methicillin-resistant S. aureus infections” (Eur J Med Chem, 2025).
≈ marks a conversion by molar mass, not a printed value. Square brackets hold non-standard residues; d marks the D form. Peptide text beside a SMILES is read from it. Tle = CC(C)(C)[C@H](N)C(=O)O; Orn = NCCC[C@H](N)C(=O)O

Experiments:
Staphylococcus aureus [1] = assay: Antibacterial activity against methicillin-sensitive Staphylococcus aureus ATCC 29213 clinical isolate assessed as bacterial growth inhibition at 256 to 0.125 ug/ml in CAMH broth medium incubated for 16 to 20 hrs by broth microdilution method; type: functional; conditions: dose 256-0.125 µg/ml, time 16-20 hrs
Staphylococcus aureus [2] = assay: Antibacterial activity against methicillin-resistant Staphylococcus aureus ATCC USA 300 clinical isolate assessed as bacterial growth inhibition at 256 to 0.125 ug/ml in CAMH broth medium incubated for 16 to 20 hrs by broth microdilution method; type: functional; conditions: dose 256-0.125 µg/ml, time 16-20 hrs
[3] = Hemolytic activity in human RBC assessed as hemolysis incubated for 1 hr by absorbance based assay; type: toxicity, cell-based, Erythrocyte; conditions: human red blood cells
[4] = Nephrotoxicity against HEK293 cells assessed as cell viability incubated for 24 hrs by MTT assay; type: toxicity, cell-based; conditions: human
[5] = Retention time of the compound by RP-HPLC analysis; type: physicochemical
[6] = Therapeutic index, ratio of HC50 for human RBC to MIC for antibacterial activity against methicillin-sensitive Staphylococcus aureus ATCC 29213 clinical isolate; type: toxicity, cell-based; conditions: pooled result: one value given for 2 cell lines, strains, targets or settings, read-out: TI

Compound | MIC (Staphylococcus aureus [1]) | MIC (Staphylococcus aureus [2]) | HC50 at 1 h [3] | IC50 at 24 h [4] | Retention_time [5] | selectivity ratio [6]
CC(C)C[C@@H]1NC(=O)[C@H](CCCN)NC(=O)[C@H](C(C)C)NC(=O)[C@@H]2CCCN2C(=O)[C@@H](Cc2ccccc2)NC(=O)[C@H](CC(C)C)NC(=O)[C@H](CCCN)NC(=O)[C@H](C(C)C)NC(=O)[C@H](Cc2c[nH]c3ccccc23)NC(=O)[C@@H](Cc2c[nH]c3ccccc23)NC1=O (HELM PEPTIDE1{L.[dF].P.V.[Orn].L.[dW].W.V.[Orn]}$PEPTIDE1,PEPTIDE1,1:R1-10:R2$$$V2.0) | 4 µg/mL (≈ 3.15 µM) | 4 µg/mL (≈ 3.15 µM) | 5.85 µg/mL | 4.64 µg/mL (≈ 3.65 µM) | 18.78 min | 1.46
CC(C)(C)[C@@H]1NC(=O)[C@H](CCCN)NC(=O)[C@H](C(C)(C)C)NC(=O)[C@@H]2CCCN2C(=O)[C@@H](Cc2ccccc2)NC(=O)[C@H](C(C)(C)C)NC(=O)[C@H](CCCN)NC(=O)[C@H](C(C)(C)C)NC(=O)[C@@H]2CCCN2C(=O)[C@@H](CCCNC(=N)N)NC1=O (cyclo([Orn][Tle][dF]P[Tle][Orn][Tle][dR]P[Tle])) | 6 µg/mL (≈ 5.09 µM) | 6 µg/mL (≈ 5.09 µM) | 84.1 µg/mL | 12.6 µg/mL (≈ 10.7 µM) | 16.92 min | 14
CC(C)C[C@@H]1NC(=O)[C@H](CCCN)NC(=O)[C@H](C(C)(C)C)NC(=O)[C@@H]2CCCN2C(=O)[C@@H](Cc2ccccc2)NC(=O)[C@H](CC(C)C)NC(=O)[C@H](CCCN)NC(=O)[C@H](C(C)C)NC(=O)[C@@H]2CCCN2C(=O)[C@@H](CCCNC(=N)N)NC1=O | 6 µg/mL (≈ 5.15 µM) | 6 µg/mL (≈ 5.15 µM) | 60.2 µg/mL | 19.5 µg/mL (≈ 16.8 µM) | 16.8 min | 10
CC(C)C[C@@H]1NC(=O)[C@H](CCCN)NC(=O)[C@H](C(C)C)NC(=O)[C@H](Cc2c[nH]c3ccccc23)NC(=O)[C@@H](Cc2ccccc2)NC(=O)[C@H](CC(C)C)NC(=O)[C@H](CCCN)NC(=O)[C@H](C(C)C)NC(=O)[C@H](Cc2c[nH]c3ccccc23)NC(=O)[C@@H](Cc2ccccc2)NC1=O (HELM PEPTIDE1{L.[dF].W.V.[Orn].L.[dF].W.V.[Orn]}$PEPTIDE1,PEPTIDE1,1:R1-10:R2$$$V2.0) | 7 µg/mL (≈ 5.3 µM) | 7 µg/mL (≈ 5.3 µM) | 12.2 µg/mL | 5.03 µg/mL (≈ 3.81 µM) | 18.58 min | 1.75
CC(C)C[C@@H]1NC(=O)[C@H](CCCN)NC(=O)[C@H](C(C)C)NC(=O)[C@H](Cc2c[nH]c3ccccc23)NC(=O)[C@@H](Cc2ccccc2)NC(=O)[C@H](CC(C)C)NC(=O)[C@H](CCCN)NC(=O)[C@H](C(C)C)NC(=O)[C@H](Cc2c[nH]c3ccccc23)NC(=O)[C@@H](CCCNC(=N)N)NC1=O (HELM PEPTIDE1{L.[dF].W.V.[Orn].L.[dR].W.V.[Orn]}$PEPTIDE1,PEPTIDE1,1:R1-10:R2$$$V2.0) | 5 µg/mL (≈ 3.76 µM) | 5 µg/mL (≈ 3.76 µM) | 19.6 µg/mL | 5.36 µg/mL (≈ 4.03 µM) | 16.6 min | 3.93
CC(C)C[C@@H]1NC(=O)[C@H](CCCN)NC(=O)[C@H](C(C)C)NC(=O)[C@H](Cc2c[nH]c3ccccc23)NC(=O)[C@@H](Cc2c[nH]c3ccccc23)NC(=O)[C@H](CC(C)C)NC(=O)[C@H](CCCN)NC(=O)[C@H](C(C)C)NC(=O)[C@H](Cc2c[nH]c3ccccc23)NC(=O)[C@@H](Cc2ccccc2)NC1=O (HELM PEPTIDE1{L.[dF].W.V.[Orn].L.[dW].W.V.[Orn]}$PEPTIDE1,PEPTIDE1,1:R1-10:R2$$$V2.0) | 64 µg/mL (≈ 47.1 µM) | 64 µg/mL (≈ 47.1 µM) | 37.2 µg/mL | 4.07 µg/mL (≈ 3 µM) | 18.68 min | 0.58
CC(C)C[C@@H]1NC(=O)[C@H](CCCN)NC(=O)[C@H](C(C)(C)C)NC(=O)[C@@H]2CCCN2C(=O)[C@@H](Cc2ccccc2)NC(=O)[C@H](CC(C)C)NC(=O)[C@H](CCCN)NC(=O)[C@H](C(C)(C)C)NC(=O)[C@@H]2CCCN2C(=O)[C@@H](Cc2ccccc2)NC1=O (HELM PEPTIDE1{L.[dF].P.[CC(C)(C)[C@H](N[*:1])C(=O)[*:2]].[Orn].L.[dF].P.[CC(C)(C)[C@H](N[*:1])C(=O)[*:2]].[Orn]}$PEPTIDE1,PEPTIDE1,1:R1-10:R2$$$V2.0) | 4 µg/mL (≈ 3.42 µM) | 4 µg/mL (≈ 3.42 µM) | 6.26 µg/mL | 4.62 µg/mL (≈ 3.95 µM) | 19.99 min | 1.57
CC(C)C[C@@H]1NC(=O)[C@H](CCCN)NC(=O)[C@H](C(C)C)NC(=O)[C@@H]2CCCN2C(=O)[C@@H](Cc2ccccc2)NC(=O)[C@H](CC(C)C)NC(=O)[C@H](CCCN)NC(=O)[C@H](C(C)C)NC(=O)[C@@H]2CCCN2C(=O)[C@@H](Cc2ccccc2)NC1=O [GRAMICIDIN S] (HELM PEPTIDE1{L.[dF].P.V.[Orn].L.[dF].P.V.[Orn]}$PEPTIDE1,PEPTIDE1,1:R1-10:R2$$$V2.0) | 4 µg/mL (≈ 3.5 µM) | 4 µg/mL (≈ 3.5 µM) | 12.3 µg/mL | 6.45 µg/mL (≈ 5.65 µM) | 18.57 min | 3.09
CC(C)C[C@@H]1NC(=O)[C@H](CCCN)NC(=O)[C@H](C(C)C)NC(=O)[C@H](Cc2c[nH]c3ccccc23)NC(=O)[C@@H](Cc2c[nH]c3ccccc23)NC(=O)[C@H](CC(C)C)NC(=O)[C@H](CCCN)NC(=O)[C@H](C(C)C)NC(=O)[C@H](Cc2c[nH]c3ccccc23)NC(=O)[C@@H](Cc2c[nH]c3ccccc23)NC1=O | 32 µg/mL (≈ 22.9 µM) | 32 µg/mL (≈ 22.9 µM) | 55.6 µg/mL | 19.7 µg/mL (≈ 14.1 µM) | 18.69 min | 1.74
CC(C)C[C@@H]1NC(=O)[C@H](CCCN)NC(=O)[C@H](C(C)(C)C)NC(=O)[C@@H]2CCCN2C(=O)[C@@H](Cc2ccccc2)NC(=O)[C@H](CC(C)C)NC(=O)[C@H](CCCN)NC(=O)[C@H](C(C)(C)C)NC(=O)[C@@H]2CCCN2C(=O)[C@@H](CCCNC(=N)N)NC1=O (HELM PEPTIDE1{L.[dF].P.[CC(C)(C)[C@H](N[*:1])C(=O)[*:2]].[Orn].L.[dR].P.[CC(C)(C)[C@H](N[*:1])C(=O)[*:2]].[Orn]}$PEPTIDE1,PEPTIDE1,1:R1-10:R2$$$V2.0) | 3 µg/mL (≈ 2.55 µM) | 3 µg/mL (≈ 2.55 µM) | 17.7 µg/mL | 9.75 µg/mL (≈ 8.27 µM) | 17.15 min | 5.9
CC(C)C[C@@H]1NC(=O)[C@H](CCCN)NC(=O)[C@H](C(C)(C)C)NC(=O)[C@@H]2CCCN2C(=O)[C@@H](Cc2ccccc2)NC(=O)[C@H](CC(C)C)NC(=O)[C@H](CCCN)NC(=O)[C@H](C(C)C)NC(=O)[C@@H]2CCCN2C(=O)[C@@H](Cc2ccccc2)NC1=O (HELM PEPTIDE1{L.[dF].P.[CC(C)(C)[C@H](N[*:1])C(=O)[*:2]].[Orn].L.[dF].P.V.[Orn]}$PEPTIDE1,PEPTIDE1,1:R1-10:R2$$$V2.0) | 4 µg/mL (≈ 3.46 µM) | 4 µg/mL (≈ 3.46 µM) | 7.49 µg/mL | 5.46 µg/mL (≈ 4.73 µM) | 19.38 min | 1.87
CC(C)C[C@@H]1NC(=O)[C@H](CCCN)NC(=O)[C@H](C(C)C)NC(=O)[C@@H]2CCCN2C(=O)[C@@H](Cc2ccccc2)NC(=O)[C@H](CC(C)C)NC(=O)[C@H](CCCN)NC(=O)[C@H](C(C)C)NC(=O)[C@H](Cc2c[nH]c3ccccc23)NC(=O)[C@@H](Cc2ccccc2)NC1=O (HELM PEPTIDE1{L.[dF].P.V.[Orn].L.[dF].W.V.[Orn]}$PEPTIDE1,PEPTIDE1,1:R1-10:R2$$$V2.0) | 4 µg/mL (≈ 3.25 µM) | 4 µg/mL (≈ 3.25 µM) | 9.04 µg/mL | 5.07 µg/mL (≈ 4.12 µM) | 18.78 min | 2.26
